From patent US20250214942A1, “INHIBITORS OF RECEPTOR INTERACTING PROTEIN KINASE I FOR THE TREATMENT OF DISEASE” (Board of Regents, The University of Texas System, priority 2019, published 2025)
pIC50: −log10 of the molar value. Values joined by “and” are separate entries in the source; they are usually repeats but may differ in a detail not shown here. Identical values can stand only once.

What follows are compounds tested against RIPK1 (Homo sapiens (Human), UniProt Q13546) (assay: ADP-Glo kinase assay (RIPK1 activity, conversion of ATP to ADP)). Settings: 5 nM RIPK1, 50 μM ATP, 6 h reaction; footnote symbol (a); read-out: RIPK1 Enzyme Avg IC50.
Format: biochemical
Method: In order to measure RIPK1 activity the ADP-Glo kinase assay (Promega, Catalog #V7002) was used to measure the conversion of ATP to ADP. This enzymatic assay was performed in a 384-well white, Optiplate (Perkin Elmer, Catalog #6007299) with assay buffer consisting of 50 mM HEPES pH 7.5 (Gibco, Catalog #15630-080), 50 mM NaCl (Teknova, Catalog #S0252), 30 mM MgCl2 (Ambion, Catalog #AM9530G), 1 mM DTT (Santa Cruz Biotechnology, Catalog #sc-29089), 0.05% BSA (Sigma, Catalog #A3059-50G) and 0.02% CHAPS (Sigma, Catalog #C5070-5G). Stock solutions of the test compounds were prepared in 100% DMSO (Sigma, Catalog #D2650) and serially diluted 1:3 using 100% DMSO. Compounds were additionally diluted 1:40 in assay buffer, and 2 μL/well were transferred to the assay plate. 4 μL/well (final concentration of 5 nM) of RIPK1 protein (SignalChem, Catalog #R07-1IG-05) diluted in assay buffer and added to the assay plate followed by a 10 minute preincutation at rt. 4 μL/well of ATP (Promega, Catalog #V7002) (final concentration of 50 μM) diluted in assay buffer were then added to the assay plate followed by a 6 h reaction time. Final concentrations of RIPK1 and ATP refer to a 10 μL volume. Luminescence was measured using a BioTek Synergy™ NEO plate reader. IC50 values were calculated using a four-parameter logistic curve fit using Genedata Screener software.

RIPK1, sequence (Q13546 1-327): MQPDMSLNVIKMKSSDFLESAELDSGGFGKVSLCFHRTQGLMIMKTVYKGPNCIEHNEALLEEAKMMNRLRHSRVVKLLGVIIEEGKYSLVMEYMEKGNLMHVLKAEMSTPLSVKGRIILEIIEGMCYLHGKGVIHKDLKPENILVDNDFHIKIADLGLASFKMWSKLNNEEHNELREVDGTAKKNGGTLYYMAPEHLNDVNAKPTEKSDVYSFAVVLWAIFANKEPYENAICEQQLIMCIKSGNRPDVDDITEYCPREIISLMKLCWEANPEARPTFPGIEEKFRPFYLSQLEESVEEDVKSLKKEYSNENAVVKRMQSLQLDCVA

Row | pIC50 | Compound
1 | < 4.30 | COC(=O)C12CC(C(=O)N[C@@H](C)c3cc(F)cc(F)c3)(C1)C2 [Example 115, methyl (S)-3-((1-(3,5-difluorophenyl)ethyl)-carbamoyl)bicyclo[1.1.1]-pentane-1-carboxylate]
2 | < 4.30 | Cc1cccc(C2CCCN2C(=O)C23CC(NC(=O)c4ccccc4)(C2)C3)c1 (centres unmarked) [Example 117, N-(3-(2-(m-tolyl)pyrrolidine-1-carbonyl)bicyclo[1.1.1]-pentan-1-yl)benzamide]
3 | < 4.30 | C[C@H](NC(=O)C12CC(CO)(C1)C2)c1cc(F)cc(F)c1 [Example 90, (S)-N-(1-(3,5-difluoro-phenyl)ethyl)-3-(hydroxymethyl)-bicyclo[1.1.1]pentane-1-carboxamide]

Same assay, conditions: 5 nM RIPK1, 50 μM ATP, 6 h reaction; read-out: RIPK1 Enzyme Avg IC50

Row | Compound | pIC50
4 | COCC12CC(C(=O)N3CC(F)CC3c3cccc(F)c3)(C1)C2 (centres unmarked) [Example 35, (4-Fluoro-2-(3-fluorophenyl)pyrrolidin-1-yl)(3-(methoxymethyl)-bicyclo[1.1.1]pentan-1-yl)methanone] | 5.33
5 | COC(=O)C12CC(C(=O)N3N=CCC3c3cc(F)cc(F)c3)(C1)C2 (centres unmarked) [Example 1, Methyl 3-(5-(3,5-difluorophenyl)-4,5-dihydro-1H-pyrazole-1-carbonyl)bicyclo[1.1.1]pentane-1-carboxylate] | 7.40
6 | O=C(N1CC(F)CC1c1cccc(F)c1)C12CC(COc3cccc4nncn34)(C1)C2 (centres unmarked) [Example 103, (3-(([1,2,4]triazolo[4,3-a]-pyridin-5-yloxy)methyl)-bicyclo[1.1.1]pentan-1-yl)(4-fluoro-2-(3-fluorophenyl)-pyrrolidin-1-yl)methanone] | 5.57
7 | (5-(3,5-difluorophenyl)-4,5-dihydro-1H-pyrazol-1-yl)(3-((6-methoxy-1H-benzo[d]-imidazol-1-yl)methyl)-bicyclo[1.1.1]pentan-1-yl)-methanone and (5-(3,5-difluorophenyl)-4,5-dihydro-1H-pyrazol-1-yl)(3-((5-methoxy-1H-benzo[d]-imidazol-1-yl)methyl)-bicyclo[1.1.1]pentan-1-yl)-methanone [Example 187] | 6.35
8 | NC(=O)c1ccnc(OCC23CC(C(=O)N4CC(F)CC4c4cccc(F)c4)(C2)C3)n1 (centres unmarked) [Example 95, 2-((3-(4-fluoro-2-(3-fluoro-phenyl)pyrrolidine-1-carbonyl)bicyclo[1.1.1]-pentan-1-yl)methoxy)-pyrimidine-4-carboxamide] | 6.82
9 | O=C(N1N=CCC1c1cc(F)cc(F)c1)C12CC(CN3C(=O)C(F)(F)c4ccccc43)(C1)C2 (centres unmarked) [Example 32, 1-((3-(5-(3,5-Difluorophenyl)-4,5-dihydro-1H-pyrazole-1-carbonyl)-bicyclo[1.1.1]pentan-1-yl)methyl)-3,3-difluoroindolin-2-one] | 6.71
10 | 1-((3-(5-(3,5-difluorophenyl)-4,5-dihydro-1H-pyrazole-1-carbonyl)bicyclo[1.1.1]-pentan-1-yl)methyl)-1H-pyrazole-3-carbonitrile and 1-((3-(5-(3,5-difluorophenyl)-4,5-dihydro-1H-pyrazole-1-carbonyl)bicyclo[1.1.1]-pentan-1-yl)methyl)-1H-pyrazole-5-carbonitrile [Example 189] | 7.57
11 | O=C(N1CC(F)CC1c1cccc(F)c1)C12CC(C(O)c3ccccc3)(C1)C2 (centres unmarked) [Example 40, (4-Fluoro-2-(3-fluorophenyl)pyrrolidin-1-yl)(3-(hydroxy(phenyl)methyl)-bicyclo[1.1.1]pentan-1-yl)methanone] | 5.35
12 | O=C(N1CCC(Oc2ccccc2)C1)C12CC(F)(C1)C2 (centres unmarked) [Example 114, (3-fluorobicyclo[1.1.1]-pentan-1-yl)(3-phenoxypyrrolidin-1-yl)methanone] | < 4.78 and 5.05
13 | N#Cc1cccc(OCC23CC(C(=O)N4CC(F)CC4c4cccc(F)c4)(C2)C3)c1 (centres unmarked) [Example 107, 3-((3-(4-fluoro-2-(3-fluoro-phenyl)pyrrolidine-1-carbonyl)bicyclo[1.1.1]-pentan-1-yl)methoxy)-benzonitrile] | 6.74
14 | N#Cc1cc(OCC23CC(C(=O)N4CC(F)CC4c4cccc(F)c4)(C2)C3)ccn1 (centres unmarked) [Example 99, 4-((3-(4-fluoro-2-(3-fluorophenyl)pyrrolidine-1-carbonyl)bicyclo[1.1.1]-pentan-1-yl)methoxy)-picolinonitrile] | 6.55
15 | (3-((3-cyclopropyl-1H-pyrazol-1-yl)methyl)-bicyclo[1.1.1]pentan-1-yl)(5-(3,5-difluorophenyl)-4,5-dihydro-1H-pyrazol-1-yl)methanone and (3-((5-cyclopropyl-1H-pyrazol-1-yl)methyl)-bicyclo[1.1.1]pentan-1-yl)(5-(3,5-difluorophenyl)-4,5-dihydro-1H-pyrazol-1-yl)methanone [Example 191] | 7.13
16 | N#Cc1ccc2cnn(CC34CC(C(=O)N5N=CCC5c5cc(F)cc(F)c5)(C3)C4)c2c1 (centres unmarked) [Example 66, 1-((3-(5-(3,5-difluorophenyl)-4,5-dihydro-1H-pyrazole-1-carbonyl)bicyclo[1.1.1]-pentan-1-yl)methyl)-1H-indazole-6-carbonitrile] | 7.80
17 | N#Cc1ccn(CC23CC(C(=O)N4CC(F)CC4c4cccc(F)c4)(C2)C3)c(=O)c1 (centres unmarked) [Example 36, 1-((3-(4-Fluoro-2-(3-fluorophenyl)pyrrolidine-1-carbonyl)bicyclo[1.1.1]pentan-1-yl)methyl)-2-oxo-1,2-dihydropyridine-4-carbonitrile] | 4.72
18 | O=C(N1N=CCC1c1cc(F)cc(F)c1)C12CC(Cn3cc(CO)nn3)(C1)C2 (centres unmarked) [Example 150, (5-(3,5-difluorophenyl)-4,5-dihydro-1H-pyrazol-1-yl)(3-((4-(hydroxymethyl)-1H-1,2,3-triazol-1-yl)methyl)-bicyclo[1.1.1]pentan-1-yl)methanone] | 5.26
19 | O=C(N1N=CCC1c1cc(F)cc(F)c1)C12CC(Cc3nnn[nH]3)(C1)C2 (centres unmarked) [Example 19, (3-((1H-tetrazol-5-yl)methyl)bicyclo[1.1.1]pentan-1-yl)(5-(3,5-difluorophenyl)-4,5-dihydro-1H-pyrazol-1-yl)methanone] | 6.44
20 | N#Cc1ccc2nn(CC34CC(C(=O)N5N=CCC5c5cc(F)cc(F)c5)(C3)C4)cc2n1 (centres unmarked) [Example 180, 2-((3-(5-(3,5-difluorophenyl)-4,5-dihydro-1H-pyrazole-1-carbonyl)bicyclo[1.1.1]-pentan-1-yl)methyl)-2H-pyrazolo[4,3-b]pyridine-5-carbonitrile] | 6.41
21 | CP(C)(=O)c1cc(OCC23CC(C(=O)N4N=CCC4c4cc(F)cc(F)c4)(C2)C3)ncn1 (centres unmarked) [Example 17, (5-(3,5-Difluorophenyl)-4,5-dihydro-1H-pyrazol-1-yl)(3-(((6-(dimethylphosphoryl)pyrimidin-4-yl)oxy)methyl)bicyclo[1.1.1]pentan-1-yl)methanone] | 6.24

Second part, the compound after the results:

Row | pIC50 | Compound
22 | 5.97 | COC(=O)C12CC(C(=O)N3CC(F)CC3c3cccc(F)c3)(C1)C2 (centres unmarked) [Example 34, Methyl 3-(4-fluoro-2-(3-fluorophenyl)pyrrolidine-1-carbonyl)-bicyclo[1.1.1]pentane-1-carboxylate]
23 | 7.72 | O=C(N1N=CCC1c1cc(F)cc(F)c1)C12CC(Cn3nc4ccccc4n3)(C1)C2 (centres unmarked) [Example 86, (3-((2H-benzo[d][1,2,3]-triazol-2-yl)methyl)bicyclo-[1.1.1]pentan-1-yl)(5-(3,5-difluorophenyl)-4,5-dihydro-1H-pyrazol-1-yl)methanone]
24 | 5.70 | C[C@H](NC(=O)C12CC(COc3cc(C#N)ncn3)(C1)C2)c1cc(F)cc(F)c1 [Example 102, (S)-3-(((6-cyanopyrimidin-4-yl)oxy)methyl)-N-(1-(3,5-difluorophenyl)ethyl)-bicyclo[1.1.1]pentane-1-carboxamide]
25 | 6.66 | O=C(N1CC(F)CC1c1cccc(F)c1)C12CC(COc3ncc(F)cn3)(C1)C2 (centres unmarked) [Example 97, (4-fluoro-2-(3-fluorophenyl)-pyrrolidin-1-yl)(3-(((5-fluoropyrimidin-2-yl)oxy)-methyl)bicyclo[1.1.1]pentan-1-yl)methanone]
26 | 4.41 | O=C(N1CC(F)CC1c1cccc(F)c1)C12CC(CO)(C1)C2 (centres unmarked) [Example 24, (4-Fluoro-2-(3-fluorophenyl)pyrrolidin-1-yl)(3-(hydroxymethyl)bicyclo[1.1.1]pentan-1-yl)methanone]
27 | 7.42 | O=C(N1N=CCC1c1ccccc1)C12CC(C1)C2 (centres unmarked) [Example 44, Bicyclo[1.1.1]pentan-1-yl(5-phenyl-4,5-dihydro-1H-pyrazol-1-yl)methanone]
28 | 5.31 | O=C(N1N=CCC1c1cc(F)cc(F)c1)C12CC(CN3CC(c4ccccc4)C3)(C1)C2 (centres unmarked) [Example 154, (5-(3,5-difluorophenyl)-4,5-dihydro-1H-pyrazol-1-yl)(3-((3-phenylazetidin-1-yl)-methyl)bicyclo[1.1.1]pentan-1-yl)methanone]
29 | 6.30 | N#Cc1cncn1CC12CC(C(=O)N3N=CCC3c3cc(F)cc(F)c3)(C1)C2 (centres unmarked) [Example 123, 1-((3-(5-(3,5-difluorophenyl)-4,5-dihydro-1H-pyrazole-1-carbonyl)bicyclo[1.1.1]-pentan-1-yl)methyl)-1H-imidazole-5-carbonitrile]
